Biological target: T1, human ALK5 (Homo sapiens, UniProt P36897)
T1 sequence (P36897 162-503): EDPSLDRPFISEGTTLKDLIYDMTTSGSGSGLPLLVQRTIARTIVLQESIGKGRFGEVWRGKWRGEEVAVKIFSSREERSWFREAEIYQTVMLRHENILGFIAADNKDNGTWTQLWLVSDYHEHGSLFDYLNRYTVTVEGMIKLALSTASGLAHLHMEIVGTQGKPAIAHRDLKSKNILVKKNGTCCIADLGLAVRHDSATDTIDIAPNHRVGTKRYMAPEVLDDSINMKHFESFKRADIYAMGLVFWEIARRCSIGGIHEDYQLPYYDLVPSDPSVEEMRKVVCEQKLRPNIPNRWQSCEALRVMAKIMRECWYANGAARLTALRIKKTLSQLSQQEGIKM
Assay: ALK5 Enzyme Assay 2 (fluorescence polarisation probe displacement)
Assay type: binding
Set-up: 6His tagged human ALK5 (residues162-503) was grown and purified from insect cells; 6His; made in house; host or cells: insect cells
Conditions: read-out: EAA2: activity (μM) using Enzyme Assay 2
Method: The ability of a compound to bind and inhibit ALK5 can be measured by its capacity to displace a probe molecule from recombinant ALK5 in an in vitro assay. Provided the probe molecule is derivatised with a fluorescent probe or is fluorescent itself, the binding affinity can be measured using Fluorescence Polarisation (FP). […] Assay measurements were performed in 50 mM HEPES pH7.4, 10 mM MgCl2, 1 mM DTT, 0.01% CHAPS in a final assay volume of 12 μl. Briefly 6 μl of ALK5 protein, final concentration of 3 μg/mL, was added to each well of a 384 well assay plate containing 12 nL of each concentration of test compound dissolved in DMSO. 6 μL of a solution containing an ALK5 FP probe ((2Z)-3-(6-{4-[2-({4-[(6-chloro[1,3]dioxolo[4,5-b]pyridin-7-yl)amino]-5-(1-methylethoxy)quinazolin-7-yl}oxy)ethyl]piperazin-1-yl}-6-oxohexyl)-2-[(2E,4E)-5-(3-ethyl-1,1-dimethyl-6,8-disulfo-1H-benzo[e]indolium-2-yl)penta-2,4-dien-1-ylidene]-1,1-dimethyl-6-sulfo-2,3-dihydro-1H-benzo[e]indole-8-sulfonate), final concentration 50 nM, and ATP, final concentration 1 μM.

Row | SMILES | IC50 [µM]
1 | CC(=O)NC1CCN(C(=O)c2cccc(Nc3cc(Oc4ccc(C)nc4C)ccn3)c2)C1 (stereo not drawn) [Example 65, N-[1-(3-{[4-(2,6-Dimethylpyridin-3-yl)oxypyridin-2-yl]-amino}benzoyl)pyrrolidin-3-yl]acetamide] | 0.0457
2 | Cc1ccc(Oc2ccnc(Nc3ccc(S(=O)(=O)NCCN4CC[C@H](F)C4)cc3)c2)c(C)n1 [Example 137] | 0.163
3 | Cc1cc(Oc2ccnc(Nc3cccc(C(=O)N4CCCCCC4)c3)c2)c(-c2ccccn2)nc1C [Example 102, Azepan-1-yl-(3-{[4-(5,6-dimethyl-2-pyridin-2-ylpyridin-3-yl)-oxypyridin-2-yl]amino}phenyl)methanone] | 0.0113
4 | Cc1ccc(Oc2ccnc(Nc3ccc(C(N)=O)cc3)c2)c(-c2ccccc2)n1 [Example 151, 4-{[4-(6-Methyl-2-phenylpyridin-3-yl)oxypyridin-2-yl]amino}-benzamide] | 0.0137
5 | CC(=O)Nc1cc(Nc2cc(Oc3ccc(C)nc3C)ccn2)ccc1C [Example 127, N-(5-{[4-(2,6-Dimethylpyridin-3-yl)oxypyridin-2-yl]amino}-2-methylphenyl)acetamide] | 0.0145
6 | Cc1ccc(Oc2ccnc(Nc3cccc(CN4CCN(C(=O)Nc5ccc(F)c(Cl)c5)CC4)c3)c2)c(C)n1 [Example 180, N-(3-Chloro-4-fluorophenyl)-4-[(3-{[4-(2,6-dimethylpyridin-3-yl)oxypyridin-2-yl]amino}phenyl)methyl]piperazine-1-carboxamide] | 0.0896
7 | Cc1cc(Oc2ccnc(Nc3ccc(C(N)=O)cc3)c2)c(-c2ccccn2)nc1C [Example 81, 4-{[4-(5,6-Dimethyl-2-pyridin-2-ylpyridin-3-yl)oxypyridin-2-yl]-amino}benzamide] | 0.0111
8 | COc1cc(Nc2cc(Oc3cccnc3-c3ccccc3C(N)=O)ccn2)cc(OC)c1OC [Example 221, 2-(3-{2-[(3,4,5-Trimethoxyphenyl)amino]pyridin-4-yl}oxypyridin-2-yl)benzamide] | 3.02
9 | COc1cc(Nc2cc(Oc3ccc(C)nc3-c3cncnc3)ccn2)cc(OC)c1OC [Example 173, 4-(6-Methyl-2-pyrimidin-5-ylpyridin-3-yl)oxy-N-(3,4,5-trimethoxyphenyl)pyridin-2-amine] | 0.0966
10 | Cc1cc(Oc2ccnc(Nc3cccc(O)c3)c2)c(-c2ccccn2)nc1C [Example 201, 3-{[4-(5,6-Dimethyl-2-pyridin-2-ylpyridin-3-yl)oxypyridin-2-yl]-amino}phenol] | 0.00393
11 | Cc1cc(Oc2ccnc(Nc3cccc(C(=O)N4CCCC(C)C4)c3)c2)c(-c2ccccn2)nc1C (stereo not drawn) [Example 101, (3-{[4-(5,6-Dimethyl-2-pyridin-2-ylpyridin-3-yl)oxypyridin-2-yl]-amino}phenyl)-(3-methylpiperidin-1-yl)methanone] | 0.0114
12 | Cc1ccc(Oc2ccnc(Nc3cccc(C#N)c3)c2)c(C)n1 [Example 125, 3-{[4-(2,6-Dimethylpyridin-3-yl)oxypyridin-2-yl]amino}-benzonitrile] | 0.192
13 | Cc1ccc(Oc2ccnc(Nc3ccc(S(C)(=O)=O)cc3)c2)c(C)n1 [Example 124, 4-(2,6-Dimethylpyridin-3-yl)oxy-N-(4-methylsulfonylphenyl)-pyridin-2-amine] | 0.077
14 | Cc1ccc(Oc2ccnc(Nc3ccc(C(=O)NCCN4CC5CCC(C4)O5)cc3)c2)c(C)n1 [Example 218, 4-{[4-(2,6-Dimethylpyridin-3-yl)oxypyridin-2-yl]amino}-N-[2-(8-oxa-3-azabicyclo[3.2.1]octan-3-yl)ethyl]benzamide] | 0.0495
15 | Cc1ccc(Oc2ccnc(Nc3cccc(C(=O)N4CCC(S(C)(=O)=O)C4)c3)c2)c(C)n1 (stereo not drawn) [Example 66, (3-{[4-(2,6-Dimethylpyridin-3-yl)oxypyridin-2-yl]amino}phenyl)-(3-methylsulfonylpyrrolidin-1-yl)methanone] | 0.0185
16 | Cc1cc(Oc2ccnc(Nc3cc(CO)cc(S(N)(=O)=O)c3)c2)c(-c2ccccn2)nc1C [Example 87, 3-{[4-(5,6-Dimethyl-2-pyridin-2-ylpyridin-3-yl)oxypyridin-2-yl]-amino}-5-(hydroxymethyl)benzenesulfonamide] | 0.0731
17 | COc1cc(Nc2cc(Oc3ccc(C)nc3C3CCCO3)ccn2)cc(OC)c1OC (stereo not drawn) [Example 167, 4-[6-Methyl-2-(oxolan-2-yl)pyridin-3-yl]oxy-N-(3,4,5-trimethoxy-phenyl)pyridin-2-amine] | 0.0568

Row | SMILES | IC50 [µM]
18 | Cc1ccc(Oc2ccnc(Nc3ccc(C(=O)NCCn4cccn4)cc3)c2)c(C)n1 [Example 140, 4-{[4-(2,6-Dimethylpyridin-3-yl)oxypyridin-2-yl]amino}-N-(2-pyrazol-1-ylethyl)benzamide] | 0.0208
19 | Cc1ccc(Oc2ccnc(Nc3ccc(S(N)(=O)=O)cc3)c2)c(-c2ccc(F)cc2)n1 [Example 156, 4-({4-[2-(4-Fluorophenyl)-6-methylpyridin-3-yl]oxypyridin-2-yl}amino)benzenesulfonamide] | 0.0454
20 | Cc1ccc(Oc2ccnc(Nc3cccc(CN4CCN(C(=O)C5CCOCC5)CC4)c3)c2)c(C)n1 [Example 186, {4-[(3-{[4-(2,6-Dimethylpyridin-3-yl)oxypyridin-2-yl]amino}-phenyl)methyl]piperazin-1-yl}-(oxan-4-yl)methanone] | 0.0238
21 | COc1ccc(NC(=O)N2CCN(Cc3cccc(Nc4cc(Oc5ccc(C)nc5C)ccn4)c3)CC2)cc1 [Example 179, 4-[(3-{[4-(2,6-Dimethylpyridin-3-yl)oxypyridin-2-yl]-amino}phenyl)methyl]-N-(4-methoxyphenyl)piperazine-1-carboxamide] | 0.0233
22 | COc1cc(Nc2cc(Oc3ccc(C)nc3-c3ccco3)ccn2)cc(OC)c1OC [Example 165, 4-[2-(Furan-2-yl)-6-methylpyridin-3-yloxy]-N-(3,4,5-trimethoxy-phenyl)pyridin-2-amine] | 0.0126
23 | Cc1cc(Oc2ccnc(Nc3cccc(-c4cnco4)c3)c2)c(-c2ccccn2)nc1C [Example 77, 4-(5,6-Dimethyl-2-pyridin-2-ylpyridin-3-yl)oxy-N-[3-(1.3-oxazol-5-yl)phenyl]pyridin-2-amine] | 0.00862
24 | Cc1ccc(Oc2ccnc(Nc3cccc(S(N)(=O)=O)c3)c2)c(C)n1 [Example 105, 3-{[4-(2,6-Dimethylpyridin-3-yl)oxypyridin-2-yl]amino}benzene-sulfonamide] | 0.00764
25 | Cc1ccc(Oc2ccnc(Nc3ccc(C(=O)N(C)C)cc3)c2)c(C)n1 [Example 121, 4-{[4-(2,6-Dimethylpyridin-3-yl)oxypyridin-2-yl]amino}-N,N-dimethylbenzamide] | 0.088
26 | Cc1ccc(Oc2ccnc(Nc3ccc(C(=O)NCCN4CCCC4=O)cc3)c2)c(C)n1 [Example 141, 4-{[4-(2,6-dimethylpyridin-3-yl)oxypyridin-2-yl]amino}-N-[2-(2-oxopyrrolidin-1-yl)ethyl]benzamide] | 0.0693
27 | Cc1ccc(Oc2ccnc(Nc3ccc(C(N)=O)cc3)c2)c(-c2ccc(F)cc2)n1 [Example 157, 4-({4-[2-(4-Fluorophenyl)-6-methylpyridin-3-yl]oxypyridin-2-yl}-amino)benzamide] | 0.0474
28 | CNS(=O)(=O)Cc1ccc(Nc2cc(Oc3cc(C)c(C)nc3-c3ccccn3)ccn2)cc1 [Example 80, 1-(4-{[4-(5,6-Dimethyl-2-pyridin-2-ylpyridin-3-yl)oxypyridin-2-yl]-amino}phenyl)-N-methylmethanesulfonamide] | 0.0169
29 | CC(=O)N(C)c1ccc(Nc2cc(Oc3cc(C)c(C)nc3-c3ccccn3)ccn2)cc1 [Example 83, N-(4-{[4-(5,6-Dimethyl-2-pyridin-2-ylpyridin-3-yl)oxypyridin-2-yl]-amino}phenyl)-N-methylacetamide] | 0.0259
30 | Cc1ccc(Oc2ccnc(Nc3cccc(C(=O)N(C4CCOCC4)C4CC4)c3)c2)c(C)n1 [Example 60, N-Cyclopropyl-3-{[4-(2,6-dimethylpyridin-3-yl)oxypyridin-2-yl]-amino}-N-(oxan-4-yl)benzamide] | 0.022
31 | Cc1ccc(Oc2ccnc(Nc3ccc(S(=O)(=O)NC4CCC4)cc3)c2)c(C)n1 [Example 113, N-Cyclobutyl-4-{[4-(2,6-dimethylpyridin-3-yl)oxypyridin-2-yl]-amino}benzenesulfonamide] | 0.288
32 | Cc1ccc(Oc2ccnc(Nc3cccc(C(=O)NCc4cnccn4)c3)c2)c(C)n1 [Example 64, 3-{[4-(2,6-Dimethylpyridin-3-yl)oxypyridin-2-yl]amino}-N-(pyrazin-2-ylmethyl)benzamide] | 0.0415
33 | Cc1ccc(Oc2ccnc(Nc3ccc(C(N)=O)cc3)c2)c(-c2ccccn2)n1 [Example 146, 4-{[4-(6-Methyl-2-pyridin-2-ylpyridin-3-yl)oxypyridin-2-yl]-amino}benzamide] | 0.0152

Reference: patent publication US20090048269A1 (AstraZeneca AB, priority 2007, published 2009)
